In ChEMBL document CHEMBL1201862, “PubChem BioAssay data set” (2004):
Calls of active or inactive are those of the source. For most assays here, no stated cut-off is given here; in the data, actives have a measured EC50 and inactives only a lower limit.

Experiments:
[1] = target: T1, Ubiquitin-conjugating enzyme E2 N (Homo sapiens, UniProt P61088); type: functional
T1 sequence (P61088 whole entry): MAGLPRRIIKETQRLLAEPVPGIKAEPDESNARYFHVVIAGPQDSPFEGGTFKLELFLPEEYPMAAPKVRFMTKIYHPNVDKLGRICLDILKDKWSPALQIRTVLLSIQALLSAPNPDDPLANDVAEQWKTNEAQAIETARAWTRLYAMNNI

[2] = target: T1, Ubiquitin-conjugating enzyme E2 N; type: functional; remark: listed apart in the source
[3] = tested on: BJ; test: BJ-TERT fibroblast viability loss – cell-based, RAS-independent, luminescence, dose response (AID 1933); type: functional; settings: Homo sapiens
[4] = tested on: Streptococcus sp. 'group A'; test: Streptococcus pyogenes SK(-)GAS viability under kanamycin – luminescence, BacTiterGlo, confirmation, counter-screen for streptokinase expression inhibitor project, dose response (AID 1900); type: functional, organism-based
[5] = tested on: BJ; test: BJ-TERT-LT-ST fibroblast viability loss – cell-based, RAS-independent, luminescence, dose response (AID 1935); type: functional; settings: Homo sapiens;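 further: BJ fibroblasts immortalized with TERT plus LT and ST oncogenes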
[6] = luciferase reporter signal suppression in cells – H4 neuroglioma cells, luminescence, dose response (AID 1990); type: functional, cell-based
[7] = Luminescence Cell-Based Dose Response HTS to Identify Inhibitors of 5'UTR Stem-Loop Driven Prion Protein mRNA Translation in H4 Neuroglioblastoma Cells. [Related pubchem assays: 1827 (Project Summary), 1813 (Primary HTS)]; type: functional
[8] = tested on: Streptococcus; test: GAS UMAA2166 growth inhibition – luminescence, BacTiterGlo, counter-screen for streptokinase expression inhibitor project, dose response (AID 1915); type: functional, organism-based;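 further: potency for reduction of bacterial viability or growth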
[9] = alpha-synuclein stem-loop luciferase translation blockers – H4 neuroglioma cells, luminescence, confirmation (AID 1988); type: functional, cell-based
[10] = microbe, parasite or virus in culture; type: functional; settings: Mycobacterium tuberculosis
[11] = fluconazole-exposed Candida albicans growth modulators – fluorescence, retest, confirmation (AID 2467); type: functional, cell-based
[12] = target: T2, Streptokinase A (Streptococcus pyogenes serotype M1, UniProt P10520); test: viability-normalized secreted streptokinase activity reduction – plasminogen activation absorbance, OD405, dose response (AID 1914); type: functional, Streptococcus pyogenes M1 GAS;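 further: secreted streptokinase activity via plasminogen activation per viability signal from cell pellet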
T2 sequence (P10520 whole entry): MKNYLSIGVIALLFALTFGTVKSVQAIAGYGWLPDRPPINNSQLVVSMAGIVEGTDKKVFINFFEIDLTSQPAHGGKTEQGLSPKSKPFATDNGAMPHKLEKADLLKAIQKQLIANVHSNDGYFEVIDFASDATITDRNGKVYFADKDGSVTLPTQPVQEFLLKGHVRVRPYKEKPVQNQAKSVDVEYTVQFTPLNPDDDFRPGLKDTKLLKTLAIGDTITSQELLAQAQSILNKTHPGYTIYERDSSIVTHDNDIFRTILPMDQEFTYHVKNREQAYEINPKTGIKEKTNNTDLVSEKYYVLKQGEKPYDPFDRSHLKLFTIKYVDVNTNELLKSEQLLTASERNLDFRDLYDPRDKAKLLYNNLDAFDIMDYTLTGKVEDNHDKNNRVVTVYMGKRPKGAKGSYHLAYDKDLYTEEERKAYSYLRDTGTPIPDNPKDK

[13] = NIH-3T3 fibroblast cytotoxicity, dose response, cytotoxicity control, cell-based, fluorescence, Alamar Blue, secondary assay (AID 2327); type: functional;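 further: NIH-3T3 mouse fibroblasts cultured with fluconazole at 8 µg/mL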
[14] = DRD fibroblast viability loss – cell-based, non-viral oncogenic, luminescence, dose response (AID 1934); type: functional; settings: Homo sapiens
[15] = target: T3, Bcl-2-related protein A1 (Mus musculus, UniProt Q07440); type: functional;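 further: confirmatory dose–response counterscreen on Bfl-1, used to check hits from a UBC13 polyubiquitin inhibitor campaign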
T3 sequence (Q07440 whole entry): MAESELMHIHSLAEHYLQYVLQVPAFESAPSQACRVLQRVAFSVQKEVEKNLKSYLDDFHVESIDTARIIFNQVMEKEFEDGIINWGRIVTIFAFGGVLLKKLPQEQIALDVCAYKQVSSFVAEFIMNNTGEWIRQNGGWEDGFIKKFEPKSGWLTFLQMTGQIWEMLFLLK

[16] = tested on: BJ; test: cells; type: functional, cell-based; settings: Homo sapiens
[17] = target: G-protein coupled receptor 55 (Homo sapiens, UniProt Q9Y2T6); test: selective activators of receptor GPR55 – imaging, U2OS cells, beta-arrestin-GFP redistribution, primary screen (AID 1961); type: functional
Sequence of G-protein coupled receptor 55 (Q9Y2T6 whole entry): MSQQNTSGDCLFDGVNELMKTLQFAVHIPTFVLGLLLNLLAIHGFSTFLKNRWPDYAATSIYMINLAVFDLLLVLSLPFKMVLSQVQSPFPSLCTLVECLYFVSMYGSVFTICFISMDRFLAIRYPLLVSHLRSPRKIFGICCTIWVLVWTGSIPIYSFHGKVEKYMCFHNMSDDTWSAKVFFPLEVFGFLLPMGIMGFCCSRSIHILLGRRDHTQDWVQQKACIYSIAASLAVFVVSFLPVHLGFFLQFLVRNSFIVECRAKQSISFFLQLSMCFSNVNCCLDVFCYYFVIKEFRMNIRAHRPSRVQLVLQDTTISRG

[18] = target: T4, Acyl-homoserine lactone acylase PvdQ (Pseudomonas aeruginosa (strain LESB58), UniProt Q9I194); test: PvdQ acylase enzyme activity blockers – biochemical, fluorescence, plate reader and imaging, cherry-picks, dose response (AID 493231)
T4 sequence (Q9I194 whole entry): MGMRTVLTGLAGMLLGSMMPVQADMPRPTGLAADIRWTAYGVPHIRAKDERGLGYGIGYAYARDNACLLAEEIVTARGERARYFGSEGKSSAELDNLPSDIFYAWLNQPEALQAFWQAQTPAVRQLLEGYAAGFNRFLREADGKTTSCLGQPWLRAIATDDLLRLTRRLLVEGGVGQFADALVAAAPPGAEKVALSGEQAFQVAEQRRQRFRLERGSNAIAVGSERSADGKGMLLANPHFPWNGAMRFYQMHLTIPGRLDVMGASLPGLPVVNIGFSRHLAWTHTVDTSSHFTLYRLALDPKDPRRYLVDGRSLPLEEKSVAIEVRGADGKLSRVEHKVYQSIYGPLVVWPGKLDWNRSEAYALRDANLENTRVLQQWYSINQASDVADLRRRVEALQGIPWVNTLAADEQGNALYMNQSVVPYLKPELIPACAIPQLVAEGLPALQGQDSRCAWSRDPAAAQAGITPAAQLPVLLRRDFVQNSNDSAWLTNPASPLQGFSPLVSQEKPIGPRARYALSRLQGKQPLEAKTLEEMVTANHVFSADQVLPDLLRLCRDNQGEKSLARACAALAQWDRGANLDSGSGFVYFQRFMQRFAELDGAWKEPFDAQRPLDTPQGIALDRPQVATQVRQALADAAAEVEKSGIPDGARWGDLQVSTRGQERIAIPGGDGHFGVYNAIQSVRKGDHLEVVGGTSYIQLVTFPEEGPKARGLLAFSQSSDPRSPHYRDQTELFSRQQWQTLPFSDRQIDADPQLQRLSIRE

[19] = target: T5, CAAX prenyl protease 2 (Saccharomyces cerevisiae S288c, UniProt Q03530); type: biochemical
T5 sequence (Q03530 whole entry): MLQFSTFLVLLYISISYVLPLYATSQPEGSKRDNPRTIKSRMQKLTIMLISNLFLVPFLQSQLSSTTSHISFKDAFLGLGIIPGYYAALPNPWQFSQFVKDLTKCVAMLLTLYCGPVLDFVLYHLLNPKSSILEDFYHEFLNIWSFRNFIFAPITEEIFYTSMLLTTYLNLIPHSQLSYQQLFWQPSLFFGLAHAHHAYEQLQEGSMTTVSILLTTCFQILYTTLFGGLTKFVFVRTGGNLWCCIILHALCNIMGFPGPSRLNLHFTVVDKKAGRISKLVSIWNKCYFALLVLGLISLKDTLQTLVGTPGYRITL

[20] = viability loss of HPDE-C7K cells – cell-based, fluorescence, HTS, primary screen (AID 431); type: functional; settings: Homo sapiens
[21] = HPDE-C7 pancreatic duct cell viability loss – fluorescence, HTS (AID 430); type: functional, cell-based; settings: Homo sapiens
[22] = target: T6, Estrogen receptor (Homo sapiens, UniProt P03372);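 further: potency for inhibiting coactivator peptide recruitment to the receptor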
T6 sequence (P03372 whole entry): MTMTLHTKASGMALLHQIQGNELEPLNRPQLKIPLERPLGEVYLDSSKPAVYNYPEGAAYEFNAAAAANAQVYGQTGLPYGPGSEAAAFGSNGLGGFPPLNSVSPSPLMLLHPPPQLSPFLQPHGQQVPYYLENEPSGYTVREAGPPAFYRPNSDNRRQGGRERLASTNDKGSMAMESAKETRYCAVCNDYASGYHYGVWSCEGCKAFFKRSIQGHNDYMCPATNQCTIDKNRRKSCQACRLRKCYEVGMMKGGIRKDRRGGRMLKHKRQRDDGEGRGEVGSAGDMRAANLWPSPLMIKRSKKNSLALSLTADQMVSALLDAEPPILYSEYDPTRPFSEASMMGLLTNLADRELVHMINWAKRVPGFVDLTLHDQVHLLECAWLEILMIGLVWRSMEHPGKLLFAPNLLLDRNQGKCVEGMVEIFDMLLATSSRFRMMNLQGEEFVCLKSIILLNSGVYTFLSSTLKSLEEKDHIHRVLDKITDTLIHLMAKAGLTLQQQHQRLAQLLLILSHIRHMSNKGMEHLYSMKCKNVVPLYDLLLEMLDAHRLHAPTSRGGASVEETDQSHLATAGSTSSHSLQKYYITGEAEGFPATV

[23] = target: Peroxisome proliferator-activated receptor gamma/Nuclear receptor coactivator 2 (Homo sapiens, UniProt P37231); test: (§1) TR-FRET dose response biochemical High Throughput Screening assay for agonists of the steroid receptor coactivator 2 (SRC-2) recruitment by the peroxisome proliferator-activated receptor gamma (PPAR gamma): non-selective agonists. [Related pubchem assays: 1297, 1032 ]; type: functional
Sequence of Peroxisome proliferator-activated receptor gamma/Nuclear receptor coactivator 2 (P37231 whole entry): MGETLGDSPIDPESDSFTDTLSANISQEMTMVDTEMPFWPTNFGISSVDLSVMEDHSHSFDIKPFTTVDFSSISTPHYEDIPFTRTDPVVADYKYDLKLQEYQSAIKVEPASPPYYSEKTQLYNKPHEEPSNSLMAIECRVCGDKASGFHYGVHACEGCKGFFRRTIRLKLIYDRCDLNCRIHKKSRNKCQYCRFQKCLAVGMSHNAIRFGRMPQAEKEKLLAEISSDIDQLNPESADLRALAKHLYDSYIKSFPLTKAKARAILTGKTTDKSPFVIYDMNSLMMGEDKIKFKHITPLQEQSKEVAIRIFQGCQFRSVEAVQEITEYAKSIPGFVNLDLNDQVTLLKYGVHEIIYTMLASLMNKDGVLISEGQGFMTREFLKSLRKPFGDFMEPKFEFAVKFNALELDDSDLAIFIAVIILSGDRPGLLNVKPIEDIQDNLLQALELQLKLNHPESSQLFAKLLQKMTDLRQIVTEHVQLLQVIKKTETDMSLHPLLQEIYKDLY
Sequence of Peroxisome proliferator-activated receptor gamma/Nuclear receptor coactivator 2 (Q15596 whole entry, further chain): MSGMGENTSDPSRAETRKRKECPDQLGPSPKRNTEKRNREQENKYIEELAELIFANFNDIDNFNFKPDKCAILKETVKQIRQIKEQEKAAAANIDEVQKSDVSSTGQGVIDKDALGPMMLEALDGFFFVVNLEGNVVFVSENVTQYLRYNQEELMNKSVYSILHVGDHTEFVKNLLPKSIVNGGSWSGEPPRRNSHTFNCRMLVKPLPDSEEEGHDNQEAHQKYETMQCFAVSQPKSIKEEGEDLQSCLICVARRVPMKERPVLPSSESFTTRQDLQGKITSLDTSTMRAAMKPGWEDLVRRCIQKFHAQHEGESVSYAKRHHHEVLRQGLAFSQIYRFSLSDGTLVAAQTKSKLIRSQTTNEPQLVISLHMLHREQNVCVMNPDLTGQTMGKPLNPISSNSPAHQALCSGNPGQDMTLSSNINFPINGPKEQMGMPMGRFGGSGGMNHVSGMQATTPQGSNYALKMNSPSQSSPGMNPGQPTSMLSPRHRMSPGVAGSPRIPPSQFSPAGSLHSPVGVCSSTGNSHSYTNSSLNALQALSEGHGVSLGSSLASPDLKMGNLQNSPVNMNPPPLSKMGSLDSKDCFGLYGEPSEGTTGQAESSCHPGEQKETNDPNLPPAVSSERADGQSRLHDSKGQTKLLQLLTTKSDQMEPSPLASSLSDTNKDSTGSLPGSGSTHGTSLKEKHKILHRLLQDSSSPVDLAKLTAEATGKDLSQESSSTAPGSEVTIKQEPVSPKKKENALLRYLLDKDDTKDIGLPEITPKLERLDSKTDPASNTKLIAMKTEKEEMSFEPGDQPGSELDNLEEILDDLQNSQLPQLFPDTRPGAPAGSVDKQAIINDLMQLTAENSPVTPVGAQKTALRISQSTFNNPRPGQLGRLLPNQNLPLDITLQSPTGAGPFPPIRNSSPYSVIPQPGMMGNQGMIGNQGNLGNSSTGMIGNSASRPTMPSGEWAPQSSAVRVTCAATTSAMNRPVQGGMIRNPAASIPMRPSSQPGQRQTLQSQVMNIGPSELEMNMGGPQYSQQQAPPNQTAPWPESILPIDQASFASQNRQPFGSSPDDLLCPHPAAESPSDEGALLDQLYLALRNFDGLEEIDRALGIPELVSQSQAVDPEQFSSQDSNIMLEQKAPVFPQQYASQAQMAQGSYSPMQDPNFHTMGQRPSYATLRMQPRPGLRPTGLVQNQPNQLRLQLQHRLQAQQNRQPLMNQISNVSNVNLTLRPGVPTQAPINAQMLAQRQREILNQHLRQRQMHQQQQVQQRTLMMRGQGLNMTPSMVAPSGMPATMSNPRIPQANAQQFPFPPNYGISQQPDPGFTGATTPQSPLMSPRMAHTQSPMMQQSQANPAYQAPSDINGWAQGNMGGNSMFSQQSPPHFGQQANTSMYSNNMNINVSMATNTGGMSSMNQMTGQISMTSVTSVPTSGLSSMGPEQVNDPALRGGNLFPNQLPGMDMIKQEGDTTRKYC

[24] = target: Peroxisome proliferator-activated receptor gamma/Nuclear receptor coactivator 1 (Homo sapiens, UniProt P37231); test: as §1, with “1 (SRC-1)” for “2 (SRC-2)”, “assays (depositor defined):AID1300, AID1808, AID504735, AID631]” for “assays: 1297, 1032 ]”; type: protein assay
[25] = target: Peroxisome proliferator-activated receptor gamma/Nuclear receptor coactivator 3 (Homo sapiens, UniProt P37231); test: as §1, with “3 (SRC-3)” for “2 (SRC-2)”, “1301 (Confirmation screen.), 1048 (Primary screen.)]” for “1297, 1032 ]”; type: functional
Sequence of Peroxisome proliferator-activated receptor gamma/Nuclear receptor coactivator 3 (P37231 whole entry): as the sequence (P37231 whole entry) above
Sequence of Peroxisome proliferator-activated receptor gamma/Nuclear receptor coactivator 3 (Q9Y6Q9 whole entry, further chain): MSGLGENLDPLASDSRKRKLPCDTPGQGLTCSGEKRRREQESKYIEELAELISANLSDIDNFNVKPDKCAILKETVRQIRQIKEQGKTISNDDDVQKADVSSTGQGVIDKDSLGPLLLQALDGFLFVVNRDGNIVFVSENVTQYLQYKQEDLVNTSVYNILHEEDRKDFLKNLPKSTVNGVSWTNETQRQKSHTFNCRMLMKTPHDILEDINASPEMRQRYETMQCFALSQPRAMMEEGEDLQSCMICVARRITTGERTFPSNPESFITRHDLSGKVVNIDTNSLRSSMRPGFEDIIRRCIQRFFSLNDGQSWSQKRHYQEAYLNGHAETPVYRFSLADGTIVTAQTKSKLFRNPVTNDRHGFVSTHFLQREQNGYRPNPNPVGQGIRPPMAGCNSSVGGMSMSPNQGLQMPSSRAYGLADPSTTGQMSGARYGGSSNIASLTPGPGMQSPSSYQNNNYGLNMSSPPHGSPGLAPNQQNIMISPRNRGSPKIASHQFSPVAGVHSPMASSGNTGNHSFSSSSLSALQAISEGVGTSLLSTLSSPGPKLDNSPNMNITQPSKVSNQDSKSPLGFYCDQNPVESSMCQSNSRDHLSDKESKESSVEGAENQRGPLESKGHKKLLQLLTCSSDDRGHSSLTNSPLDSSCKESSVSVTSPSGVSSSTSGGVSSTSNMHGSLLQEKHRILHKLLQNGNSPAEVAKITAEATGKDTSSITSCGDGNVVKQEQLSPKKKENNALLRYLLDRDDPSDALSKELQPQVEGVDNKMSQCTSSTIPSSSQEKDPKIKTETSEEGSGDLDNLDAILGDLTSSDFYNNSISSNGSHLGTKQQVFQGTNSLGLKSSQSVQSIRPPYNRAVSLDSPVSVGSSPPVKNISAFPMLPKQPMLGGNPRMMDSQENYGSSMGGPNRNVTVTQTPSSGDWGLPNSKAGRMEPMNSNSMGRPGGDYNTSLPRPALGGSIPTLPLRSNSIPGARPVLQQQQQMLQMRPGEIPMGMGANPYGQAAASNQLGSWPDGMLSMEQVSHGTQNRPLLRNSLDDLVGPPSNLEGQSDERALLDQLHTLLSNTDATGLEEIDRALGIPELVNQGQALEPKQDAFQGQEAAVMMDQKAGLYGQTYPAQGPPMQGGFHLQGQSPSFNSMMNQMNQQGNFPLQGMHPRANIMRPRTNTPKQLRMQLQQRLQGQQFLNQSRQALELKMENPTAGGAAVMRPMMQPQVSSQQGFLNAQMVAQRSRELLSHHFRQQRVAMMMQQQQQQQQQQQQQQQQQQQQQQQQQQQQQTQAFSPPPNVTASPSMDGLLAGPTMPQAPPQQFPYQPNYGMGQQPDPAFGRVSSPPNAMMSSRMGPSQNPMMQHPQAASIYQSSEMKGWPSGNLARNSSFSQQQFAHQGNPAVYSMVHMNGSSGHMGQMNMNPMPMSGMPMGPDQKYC

Structure (SMILES): CC[n+]1c(/C=C/N(C)c2ccccc2)n(-c2ccccc2)c2ccc(-c3nc4ccccc4s3)cc21
- IC50 [1]: 9.83 µM (active)
- IC50 [2]: 7.42 µM (active)
- EC50 [3]: 2.49 µM (inconclusive)
- EC50 [4]: 3.27 µM (active)
- EC50 [5]: 2.7 µM (inconclusive)
- EC50 [6]: 0.35 µM (active)
- EC50 [7]: 5.72 µM (active)
- EC50 [8]: 12 µM (active)
- EC50 [9]: 0.387 µM (active)
- CC50 [10]: 3.06 µM (active)
- EC50 [11]: 0.337 µM (active)
- EC50 [12]: 13.3 µM (active)
- EC50 [13]: 90 µM (active)
- EC50 [14]: 3.03 µM (active)
- IC50 [15]: 13.2 µM (active)
- EC50 [16]: 2.93 µM (inconclusive)
- EC50 [17]: > 32 µM (inactive)

Structure (SMILES): CCOC(=O)c1ccc(-c2ccc(CO)o2)cc1
- AC50 [18]: 11.6 µM (active)

Structure (SMILES): COc1cccc(-c2c(C(=O)N/N=C/c3sccc3C)nnn2-c2nonc2N)c1
- AC50 [19]: 7.8 µM (active)

Structure (SMILES): Cc1ccc(-c2nn3c(C)nnc3s2)cc1NC(=O)c1ccc(-c2cccc(Cl)c2)o1
- EC50 [20]: 17.7 µM (active)
- EC50 [21]: 15.4 µM (active)
- IC50 [22]: > 50 µM (not active)
- EC50 [17]: 17.7 µM (inactive)

Structure (SMILES): CSc1ccccc1-c1nnc(S)o1
- EC50 [4]: > 150 µM (not active)
- EC50 [8]: > 150 µM (not active)
- EC50 [12]: > 150 µM (not active)
- EC50 [23]: 4.77 µM (active)
- EC50 [24]: 22.3 µM (inactive)
- EC50 [25]: > 79.4 µM (not active)

Structure (SMILES): Cc1ccc2scc(CN3CCCC3)c2c1
- AC50 [18]: 5.66 µM (active)
